The values below come from PMC9555310, “Novel inhibitors and activity-based probes targeting serine proteases” (Frontiers in Chemistry, 2022).

Structures are written as SMILES.

The target in experiment [1] is T1, elastase-like proteases (NE) in CF Sol samples (Homo sapiens, UniProt P08246).
T1 construct: from tissue; host or cells: Cystic Fibrosis (CF) Sol samples 26w and 41w from patients
T1 sequence (P08246 30-247 limits assumed): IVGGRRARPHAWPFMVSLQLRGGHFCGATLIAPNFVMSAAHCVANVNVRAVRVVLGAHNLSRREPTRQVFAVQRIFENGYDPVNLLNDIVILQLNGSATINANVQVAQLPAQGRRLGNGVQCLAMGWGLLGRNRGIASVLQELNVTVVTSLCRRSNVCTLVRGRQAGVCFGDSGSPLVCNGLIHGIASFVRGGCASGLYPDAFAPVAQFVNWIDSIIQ
The experiment is described as follows: Activity-based profiling of CF Sol samples (SDS-PAGE, streptavidin-HRP western blot). The settings on record: 50 μM, 30 min, 37°C; band ∼29 kDa. The format is binding. The procedure:
Samples of recombinant protease (trypsin, plasmin, thrombin, chymotrypsin, or HNE, as indicated in the relevant figure legends) were treated with each of the newly synthesized compounds at a concentration of 50 μM, for 30 min, at 37°C. A control sample (no ABP) was prepared by treating the recombinant protease with solvent vehicle (DMF) only, used to prepare the stock solution of each ABP. Samples were also pre-treated (±90°C for 30 min) before being incubated with each putative ABP. With trypsin and thrombin, further samples were prepared where Z-Arg^P-(OPh)2 or NAP559, respectively, was added 30 min prior to the addition of the ABP under examination. All treated samples were then denatured with SDS containing reducing treatment buffer (10 min at 95°C), followed by resolution by SDS-PAGE and subjected to Western blotting. Resolved proteins were then transferred onto the nitrocellulose membrane and labeled with streptavidin-HRP. The ABP–protease complex was then visualized following treatment with Luminata Forte HRP substrate.
FIGURE 7 Activity Based Profiling of serine proteases by peptide N-Alkyl glycine carbamates. […] CF Sol (sample 26w) was used at a final concentration of 2.5% (v/v), and the level of NE contained therein was measured using Succinyl-Ala-Ala-Pro-Val-NHMec (50 μM), in the absence (-- o --) and presence (-- o --) of NAP800 (50 μM). […]
Background: Immunoblotting shows a protein as a band on a membrane.

A further experiment deals with T2, trypsin (Sus scrofa, UniProt P00761).
T2 construct: purchased Sigma-Aldrich; host or cells: porcine pancreas
The experiment is described as follows: Irreversible inhibition kinetics of trypsin (fluorogenic substrate progress curves). The format is biochemical, porcine. On the procedure: A range of inhibitor concentrations were prepared from a 10 mM stock solution of the test compounds (NAP533, NAP559, NAP800, NAP830, NAP849, and NAP962) in N, N-dimethylformamide (DMF). Recombinant protease activities were assayed using the cognate fluorogenic substrates as follows: trypsin (Z-Gly-Gly-Arg-NHMec), thrombin (Boc-Val-Pro-Arg-NHMec), plasmin (Boc-Val-Leu-Lys-NHMec), human neutrophil elastase (MeO-Succinyl-Ala-Ala-Pro-Val-NHMec), and chymotrypsin (Succinyl-Ala-Ala-Pro-Phe-NHMec). Each substrate was used at a final concentration of 50 μM, in the appropriate buffer for each protease. All inhibition assays were performed in microtiter plates maintained at 37°C in a final volume of 100 μL. The reaction was initiated by the addition of each protease (approx. 0.01 μg/well) and the rate of substrate hydrolysis was recorded continuously at 37°C, over a 60 min period, by measuring the rate of increase in fluorescence (at λex 360 nm, λem 480 nm) using a FLUOstar Optima microplate reader (BMG Labtech).
The resultant inhibition progress curves obtained for each inhibitor were analyzed by the kinetic models developed by [Tian and Tsou (1982)] and [Walker and Elmore (1984)], for irreversible inhibitors, with curve fitting being achieved using GraFit (Erithacus Software), as described previously ([Ferguson et al., 2016]).
FIGURE 4 Progress curves for (A), chymotrypsin-catalysed hydrolysis of Succinyl-Ala-Ala-Pro-Phe-NHMec, in the presence of varying concentrations of NAP849. (B), NE-catalysed hydrolysis of MeO-succinyl-Ala-Ala-Pro-Val-NHMec, in the presence of varying concentrations of NAP800. (C) Trypsin-catalysed of Z-Gly-Gly-Arg-NHMec, in the presence of NAP830. (D) Plasmin-catalysed hydrolysis of Boc-Val-Leu-Lys-NHMec, in the presence of varying concentrations of NAP962. Assays were carried out in PBS, pH 7.4, at 37°C, in the presence of a range of inhibitor concentrations (0.25–50 μM) and a fixed concentration (50 μM) of the appropriate substrate for each protease. […]
Protease inactivation by each of the compounds under study was evaluated using a fluorogenic enzyme assays. […]

T2 sequence (P00761 9-231): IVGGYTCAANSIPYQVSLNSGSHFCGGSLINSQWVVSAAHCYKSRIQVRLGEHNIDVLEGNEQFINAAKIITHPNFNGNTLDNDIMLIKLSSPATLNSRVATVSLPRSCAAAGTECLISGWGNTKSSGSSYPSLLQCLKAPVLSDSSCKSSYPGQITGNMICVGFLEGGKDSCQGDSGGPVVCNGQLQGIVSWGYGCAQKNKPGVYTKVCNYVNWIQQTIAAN

As to `CC(C)N(CC(=O)NCC(=O)NCC(=O)NCCCOCCOCCOCCCNC(=O)CCCCC1SCC2NC(=O)NC21)C(=O)ON1C(=O)CCC1=O` (stereo not drawn) [NAP800, Succinimidoyl-CO-NVal-Gly-Gly-PEG-Biotin], the “labelling of elastase-like proteases in CF Sol (western blot)” value in experiment [1] is “detection of a diffuse band in two CF Sol samples (26w and 41w)”.
Consider `NCCCCN(CC(=O)NCC(=O)NCC(=O)NCCCOCCOCCOCCCNC(=O)CCCCC1SCC2NC(=O)NC21)C(=O)ON1C(=O)CCC1=O` (stereo not drawn) [NAP830, Succinimidoyl-CO-NLys-Gly-Gly-PEG-Biotin], for which the “k 3” value on trypsin (first-order rate constant, PBS pH 7.4, 37°C, mean ± SD (n=2)) is given as 0.6 (+ 0.2) min^−1. Besides, the “effectiveness as irreversible inhibitor relative to the analogous lysine diphenyl phosphonate QUBTL2” value on trypsin (fold greater than QUBTL2) is “two-fold”. The “k 3 / K i” value at trypsin (second-order rate constant of inactivation, PBS pH 7.4, 37°C, mean ± SD (n=2)) stood at 45700 M⁻¹ s⁻¹.
